US9730937B2, “RAF kinase modulator compounds and methods of use thereof” (AMBIT BIOSCIENCES CORPORATION, priority 2008, dated 2017)
Structures can show the parent of a compound that is named as a salt. Where two headings read alike, the source gives them in different places.

Tests used:
mutant BRAF kinase = mutant BRAF kinase (Homo sapiens (Human), UniProt P15056, V600E); conditions: read-out: BRAF V600E Kd, class symbols
RAF kinases = RAF kinases (Homo sapiens (Human), UniProt P04049); conditions: read-out: RAF1 Kd, class symbols
Sequence of RAF kinases (P04049 whole entry): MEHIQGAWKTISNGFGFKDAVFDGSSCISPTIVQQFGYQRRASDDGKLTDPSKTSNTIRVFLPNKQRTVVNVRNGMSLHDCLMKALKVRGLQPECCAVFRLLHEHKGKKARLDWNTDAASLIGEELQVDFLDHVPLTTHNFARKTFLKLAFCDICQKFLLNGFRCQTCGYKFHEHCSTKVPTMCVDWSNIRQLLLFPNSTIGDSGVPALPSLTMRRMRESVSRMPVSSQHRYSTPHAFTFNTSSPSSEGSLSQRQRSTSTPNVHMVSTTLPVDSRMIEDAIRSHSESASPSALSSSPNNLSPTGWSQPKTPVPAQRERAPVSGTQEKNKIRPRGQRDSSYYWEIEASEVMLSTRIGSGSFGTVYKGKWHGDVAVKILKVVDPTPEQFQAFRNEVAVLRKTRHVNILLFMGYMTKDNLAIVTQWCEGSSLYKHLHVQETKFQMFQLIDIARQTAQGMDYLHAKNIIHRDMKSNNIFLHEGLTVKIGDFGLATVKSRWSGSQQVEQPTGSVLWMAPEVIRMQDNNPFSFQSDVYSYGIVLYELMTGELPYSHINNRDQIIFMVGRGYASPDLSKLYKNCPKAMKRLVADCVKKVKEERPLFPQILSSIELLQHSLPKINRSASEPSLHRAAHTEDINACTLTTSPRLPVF
Procedure: The liganded beads were blocked with excess biotin and washed with blocking buffer (SeaBlock (Pierce), 1% BSA, 0.05% Tween 20, 1 mM DTT) to remove unbound ligand and to reduce non-specific binding. […] Test compounds were prepared as 100× stocks in DMSO and rapidly diluted into the aqueous environment. DMSO was added to control assays lacking a test compound. Primary screen interactions were performed in polypropylene 384-well plates in a final volume of 34 μL, while Kd determinations were performed in polystyrene 96-well plates in a final volume of 135 μL. […] The kinase concentration in the eluates was measured by quantitative PCR. Each kinase was tested individually against each compound. KdS were determined using eleven serial threefold dilutions. A selectivity score, which is a quantitative measure of selectivity of a compound against a panel of enzymes, may be calculated for a compound by dividing the number of enzymes for which a compound meets a set criteria, (for example, a binding constant of 100 nM or less), by the total number of enzymes tested. […] (Note, for those compounds tested in a larger kinase panel, as indicated by an asterisk (*) next to the S35 score, the divisor is 321 (i.e. the larger panel contains 321 distinct kinases, excluding mutant variants.)).

[1] = test system: panel of 290 distinct kinases (321 in the larger panel), excluding mutant variants; conditions: kinase selectivity score, class symbols
wild type BRAF kinase = wild type BRAF kinase (Homo sapiens (Human), UniProt P15056); conditions: read-out: BRAF WT Kd, class symbols
Sequence of wild type BRAF kinase (P15056 whole entry): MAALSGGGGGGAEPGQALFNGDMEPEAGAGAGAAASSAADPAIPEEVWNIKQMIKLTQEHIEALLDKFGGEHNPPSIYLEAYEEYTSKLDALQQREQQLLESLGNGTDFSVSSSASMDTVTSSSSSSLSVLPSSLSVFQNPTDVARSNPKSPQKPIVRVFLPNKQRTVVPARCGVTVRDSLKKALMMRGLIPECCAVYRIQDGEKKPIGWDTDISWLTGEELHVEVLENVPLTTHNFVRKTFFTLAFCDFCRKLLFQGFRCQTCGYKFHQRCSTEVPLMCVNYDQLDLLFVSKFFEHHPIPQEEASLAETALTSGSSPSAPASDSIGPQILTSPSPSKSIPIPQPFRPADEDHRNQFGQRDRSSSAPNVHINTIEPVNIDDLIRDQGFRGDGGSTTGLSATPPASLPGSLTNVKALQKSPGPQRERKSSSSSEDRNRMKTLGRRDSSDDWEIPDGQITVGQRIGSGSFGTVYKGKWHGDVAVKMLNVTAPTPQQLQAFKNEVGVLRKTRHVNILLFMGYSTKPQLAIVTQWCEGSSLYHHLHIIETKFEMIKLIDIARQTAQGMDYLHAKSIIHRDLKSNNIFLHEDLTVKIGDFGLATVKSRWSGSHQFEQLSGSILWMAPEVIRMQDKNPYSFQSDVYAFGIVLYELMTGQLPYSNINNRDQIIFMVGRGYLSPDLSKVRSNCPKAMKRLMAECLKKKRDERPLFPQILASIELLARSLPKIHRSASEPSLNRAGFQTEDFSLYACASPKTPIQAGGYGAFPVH

[2] = value marked * (larger kinase panel)

Sequence of mutant BRAF kinase (P15056 whole entry V600E): as the sequence (P15056 whole entry) above, with V600E counted along it

COc1cc2ncnc(Oc3cccc(NC(=O)Nc4cc(C(C)(C)C)on4)c3)c2cc1OCCN1CCCCC1 [Ex 16, 1-(5-tert-butylisoxazol-3-yl)-3-(3-(7-methoxy-6-(2-(piperidin-1-yl)ethoxy)quinazolin-4-yloxy)phenyl)urea]
Kd (mutant BRAF kinase): < 250 nM
Kd (RAF kinases): > 1000 nM
S35 ([1]; 290 distinct kinases): C (0.20 < C ≦ 0.40)

COc1cc2ncnc(Oc3cccc(NC(=O)Nc4cc(C(C)(C)C)on4)c3)c2cc1OCCCN1CCS(=O)(=O)CC1 [Ex 26, 1-(5-tert-butyl-isoxazol-3-yl)-3-(3-{6-[3-(1,1-dioxo-thiomorpholin-4-yl)-propoxy]-7-methoxy-quinazolin-4-yloxy}-phenyl)-urea]
Kd (mutant BRAF kinase): < 250 nM
Kd (RAF kinases): < 250 nM
S35 ([1]; 290 distinct kinases): D (D > 0.40)

COc1cc2c(Oc3cccc(NC(=O)Nc4cc(C(C)(C)C)on4)c3)ncnc2cc1OCCCN1CCN(C)CC1 [Ex 28, 1-(5-tert-butylisoxazol-3-yl)-3-(3-(6-methoxy-7-(3-(4-methylpiperazin-1-yl)propoxy)quinazolin-4-yloxy)phenyl)urea]
Kd (mutant BRAF kinase): < 250 nM
Kd (RAF kinases): < 250 nM
S35 ([1]; 290 distinct kinases): D (D > 0.40)

COc1ccc2ncnc(Sc3cccc(NC(=O)Nc4cc(C(C)(C)C)on4)c3)c2c1 [Ex 49, 1-(5-tert-butylisoxazol-3-yl)-3-(3-(6-methoxyquinazolin-4-ylthio)phenyl)urea]
Kd (wild type BRAF kinase): > 1000 nM
S35 ([1]; 290 distinct kinases): C (0.20 < C ≦ 0.40)

COc1cc2ncnc(Sc3cccc(NC(=O)Nc4cc(C(C)(C)C)on4)c3)c2cc1OCCCN1CCN(CCO)CC1 [Ex 61, 1-(5-tert-butylisoxazol-3-yl)-3-(3-(6-(3-(4-(2-hydroxyethyl)piperazin-1-yl)propoxy)-7-methoxyquinazolin-4-ylthio)phenyl)urea]
Kd (mutant BRAF kinase): < 250 nM
Kd (RAF kinases): < 250 nM
S35 ([1]; 290 distinct kinases): D (D > 0.40)

COc1cc2ncnc(Sc3cccc(NC(=O)Nc4cc(C(C)(C)C)on4)c3)c2cc1OCCCN1CCS(=O)(=O)CC1 [Ex 62, 1-(5-tert-butyl-isoxazol-3-yl)-3-(3-{6-[3-(1,1-dioxo-thiomorpholin-4-yl)-propoxy]-7-methoxy-quinazolin-4-ylsulfanyl}-phenyl)-urea]
Kd (mutant BRAF kinase): < 250 nM
Kd (RAF kinases): < 250 nM
S35 ([1]; 290 distinct kinases): C (0.20 < C ≦ 0.40)

COc1cc2ncnc(Sc3cccc(NC(=O)Nc4cc(C(C)(C)C)on4)c3)c2cc1OCCCN1CCOCC1 [Ex 63, 1-(5-tert-butylisoxazol-3-yl)-3-(3-(7-methoxy-6-(3-morpholinopropoxy)quinazolin-4-ylthio)phenyl)urea]
Kd (mutant BRAF kinase): < 250 nM
Kd (RAF kinases): < 250 nM
S35 ([1]; 290 distinct kinases): C (0.20 < C ≦ 0.40)

COc1cc2ncnc(Sc3cccc(NC(=O)Nc4cc(C(C)(C)C)on4)c3)c2cc1OCCN1CCOCC1 [Ex 70, 1-(5-tert-butylisoxazol-3-yl)-3-(3-(7-methoxy-6-(2-morpholinoethoxy)quinazolin-4-ylthio)phenyl)urea]
Kd (mutant BRAF kinase): < 250 nM
Kd (RAF kinases): < 250 nM
S35 ([1]; 290 distinct kinases): C (0.20 < C ≦ 0.40)

COc1cc2c(Sc3cccc(NC(=O)Nc4cc(C(C)(C)C)on4)c3)ncnc2cc1OCCCN1CCC(CO)CC1 [Ex 74, 1-(5-tert-butylisoxazol-3-yl)-3-(3-(7-(3-(4-(hydroxymethyl)piperidin-1-yl)propoxy)-6-methoxyquinazolin-4-ylthio)phenyl)urea]
Kd (mutant BRAF kinase): < 250 nM
Kd (RAF kinases): < 250 nM
S35 ([1]; 290 distinct kinases): D (D > 0.40)

COc1cc2c(Sc3cccc(NC(=O)Nc4cc(C(C)(C)C)on4)c3)ncnc2cc1OCCN1CCC(CO)CC1 [Ex 86, 1-(5-tert-butylisoxazol-3-yl)-3-(3-(7-(2-(4-(hydroxymethyl)piperidin-1-yl)ethoxy)-6-methoxyquinazolin-4-ylthio)phenyl)urea]
Kd (wild type BRAF kinase): > 1000 nM
S35 ([1]; 290 distinct kinases): C (0.20 < C ≦ 0.40)

COCCOc1ccc2ncnc(Sc3cccc(NC(=O)Nc4cc(C(C)(C)C)on4)c3)c2c1 [Ex 87, 1-(5-tert-butylisoxazol-3-yl)-3-(3-(6-(2-methoxyethoxy)quinazolin-4-ylthio)phenyl)urea]
Kd (wild type BRAF kinase): > 1000 nM
S35 ([1]; 290 distinct kinases): C (0.20 < C ≦ 0.40)

COc1cc2c(Oc3cccc(NC(=O)Nc4cc(C(C)(C)C)on4)c3)ncnc2cc1O[C@H]1CCNC1 [Ex 96, (S)-1-(5-tert-butylisoxazol-3-yl)-3-(3-(6-methoxy-7-(pyrrolidin-3-yloxy)quinazolin-4-yloxy)phenyl)urea dihydrochloride]
Kd (mutant BRAF kinase): < 250 nM
Kd (RAF kinases): < 250 nM
S35 ([1]; 290 distinct kinases): C (0.20 < C ≦ 0.40)

COc1cc2c(Oc3cccc(NC(=O)Nc4cc(C(C)(C)C)on4)c3)ncnc2cc1O[C@@H]1CCNC1 [Ex 98, (R)-1-(5-tert-butylisoxazol-3-yl)-3-(3-(6-methoxy-7-(pyrrolidin-3-yloxy)quinazolin-4-yloxy)phenyl)urea dihydrochloride]
Kd (mutant BRAF kinase): < 250 nM
Kd (RAF kinases): < 250 nM
S35 ([1]; 290 distinct kinases): C (0.20 < C ≦ 0.40)

COc1cc2ncnc(Oc3cccc(NC(=O)Nc4cc(C(C)(C)C)on4)c3)c2cc1O [Ex 107, 1-(5-tert-butylisoxazol-3-yl)-3-(3-(6-hydroxy-7-methoxyquinazolin-4-yloxy)phenyl)urea]
Kd (mutant BRAF kinase): < 250 nM
Kd (RAF kinases): < 250 nM
S35 ([1]; 290 distinct kinases): C (0.20 < C ≦ 0.40)

COc1cc2ncnc(Oc3cccc(NC(=O)Nc4cc(C(C)(C)C)on4)c3)c2cc1O[C@H]1CCN(CC(F)F)C1 [Ex 110, (S)-1-(5-tert-butylisoxazol-3-yl)-3-(3-(6-(1-(2,2-difluoroethyl)pyrrolidin-3-yloxy)-7-methoxyquinazolin-4-yloxy)phenyl)urea]
Kd (mutant BRAF kinase): < 250 nM
Kd (RAF kinases): < 250 nM
S35 ([1]; 290 distinct kinases): C (0.20 < C ≦ 0.40)

COc1cc2ncnc(Oc3cccc(NC(=O)Nc4cc(C(C)(C)C)on4)c3)c2cc1OC[C@@H](O)CN1CCN(C)CC1 [Ex 111, (S)-1-(5-tert-butylisoxazol-3-yl)-3-(3-(6-(2-hydroxy-3-(4methylpiperazin-1-yl)propoxy)-7-methoxyquinazolin-4-yloxy)phenyl)urea]
Kd (mutant BRAF kinase): < 250 nM
Kd (RAF kinases): < 250 nM
S35 ([1]; 290 distinct kinases): D (D > 0.40)

COc1cc2ncnc(Oc3cccc(NC(=O)Nc4cccc(C(C)(C)C)c4)c3)c2cc1OC [Ex 118, 1-(3-tert-butylphenyl)-3-(3-(6,7-dimethoxyquinazolin-4-yloxy)phenyl)urea]
Kd (mutant BRAF kinase): < 250 nM
Kd (RAF kinases): < 250 nM
S35 [1, 2]: C* (0.20 < C ≦ 0.40)

COc1cc2ncnc(Sc3cccc(NC(=O)Nc4cccc(C(C)(C)C)c4)c3)c2cc1OC [Ex 120, 1-(3-tert-butylphenyl)-3-(3-(6,7-dimethoxyquinazolin-4-ylthio)phenyl)urea]
Kd (mutant BRAF kinase): < 250 nM
Kd (RAF kinases): < 250 nM
S35 [1, 2]: C* (0.20 < C ≦ 0.40)

COc1cc2ncnc(Oc3cccc(NC(=O)Nc4cc(C(C)(C)CO)on4)c3)c2cc1OC [Ex 131, 1-(3-(6,7-dimethoxyquinazolin-4-yloxy)phenyl)-3-(5-(1-hydroxy-2-methylpropan-2-yl)isoxazol-3-yl)urea]
Kd (mutant BRAF kinase): < 250 nM
Kd (RAF kinases): < 250 nM
S35 ([1]; 290 distinct kinases): C (0.20 < C ≦ 0.40)

COc1cc2ncnc(Oc3cccc(NC(=O)Nc4ccc(OC)c(C(F)(F)F)c4)c3)c2cc1OC [Ex 138, 1-(3-(6,7-dimethoxyquinazolin-4-yloxy)phenyl)-3-(4-methoxy-3-(trifluoromethyl)phenyl)urea]
Kd (mutant BRAF kinase): < 250 nM
Kd (RAF kinases): < 250 nM
S35 ([1]; 290 distinct kinases): B (0.10 < B ≦ 0.20)

COc1cc2ncnc(Oc3cccc(NC(=O)Nc4cccc(C(C)C)c4)c3)c2cc1OC [Ex 144, 1-(3-(6,7-dimethoxyquinazolin-4-yloxy)phenyl)-3-(3-isopropylphenyl)urea]
Kd (mutant BRAF kinase): < 250 nM
Kd (RAF kinases): < 250 nM
S35 [1, 2]: C* (0.20 < C ≦ 0.40)

COc1cc2ncnc(Oc3cccc(NC(=O)Nc4cc(C(C)(CF)CF)on4)c3)c2cc1OC [Ex 162, 1-[5-(1,3-difluoro-2-methylpropan-2-yl)isoxazol-3-yl]-3-[3-(6,7-dimethoxyquinazolin-4-yloxy)phenyl]urea]
Kd (mutant BRAF kinase): < 250 nM
Kd (RAF kinases): < 250 nM
S35 [1, 2]: C* (0.20 < C ≦ 0.40)

COc1cc2ncnc(Oc3cccc(NC(=O)Nc4ccc(OC(F)(F)F)cc4)c3)c2cc1OC [Ex 177, 1-(3-(6,7-dimethoxyquinazolin-4-yloxy)phenyl)-3-(4-(trifluoromethoxy)phenyl)urea]
Kd (mutant BRAF kinase): < 250 nM
Kd (RAF kinases): < 250 nM
S35 ([1]; 290 distinct kinases): C (0.20 < C ≦ 0.40)

COc1cc2ncnc(Oc3cccc(NC(=O)Nc4ccc(C(F)(F)F)cc4)c3)c2cc1OC [Ex 183, 1-(3-(6,7-dimethoxyquinazolin-4-yloxy)phenyl)-3-(4-(trifluoromethyl)phenyl)urea]
Kd (mutant BRAF kinase): < 250 nM
Kd (RAF kinases): < 250 nM
S35 [1, 2]: C* (0.20 < C ≦ 0.40)

COc1cc2ncnc(Sc3cccc(NC(=O)Nc4cccc(C(F)(F)F)c4)c3)c2cc1OC [Ex 185, 1-(3-(6,7-dimethoxyquinazolin-4-ylthio)phenyl)-3-(3-(trifluoromethyl)phenyl)urea]
Kd (mutant BRAF kinase): < 250 nM
Kd (RAF kinases): < 250 nM
S35 [1, 2]: C* (0.20 < C ≦ 0.40)

COc1cc2ncnc(Sc3cccc(NC(=O)Nc4cc(C(C)(C)F)no4)c3)c2cc1OC [Ex 187, 1-(3-(6,7-dimethoxyquinazolin-4-ylthio)phenyl)-3-(3-(2-fluoropropan-2-yl)isoxazol-5-yl)urea]
Kd (mutant BRAF kinase): < 250 nM
Kd (RAF kinases): < 250 nM
S35 [1, 2]: C* (0.20 < C ≦ 0.40)

COc1cc2ncnc(Sc3cccc(NC(=O)Nc4cc(C(C)(CF)CF)on4)c3)c2cc1OC [Ex 191, 1-[5-(1,3-difluoro-2-methylpropan-2-yl)isoxazol-3-yl]-3-[3-(6,7-dimethoxyquinazolin-4-ylthio)phenyl]urea]
Kd (mutant BRAF kinase): < 250 nM
Kd (RAF kinases): < 250 nM
S35 [1, 2]: C* (0.20 < C ≦ 0.40)

COc1cc2ncnc(Sc3cccc(NC(=O)Nc4cc(C5CCCC5)on4)c3)c2cc1OC [Ex 201, 1-(5-Cyclopentylisoxazol-3-yl)-3-(3-(6,7-dimethoxyquinazolin-4-ylthio)phenyl)urea]
Kd (mutant BRAF kinase): < 250 nM
Kd (RAF kinases): < 250 nM
S35 [1, 2]: C* (0.20 < C ≦ 0.40)
